The record followed here is publication PMC11680393 (Viruses, 2024).

Series [1] deals with RSV A2. The series is described as follows: CPE assay, RSV A2 in HEp-2 cells (resazurin). The format is cell-based. Conditions: human respiratory syncytial virus, 120 h, RSV A2 0.2 MOI, 5 days. For orientation: The colour change of resazurin is a common sign of viable cells or microbes.
The nature of series [2]: in vitro. The format is cell-based, Human. The conditions noted are these: human; HEp-2 cells, 5 or 6 days; read-out: Cytotoxicity CC50.
Series [3] has as its system HEp-2 cells. The series is described as follows: in vitro. The format is cell-based, Human.

Structures are written as SMILES.

One may read the IC50 as the concentration at which inhibition is half-maximal. Low readings indicate greater potency in that assay, high ones weaker potency in that assay. A word on the CC50: it is the concentration giving 50% cytotoxicity. Consider `Cc1cnc(N2CC3(CCOCC3)C2)c(C(=O)Nc2ccc(C(=O)N3CCc4cc(C(=O)Nc5c(C)cccc5F)sc4-c4ccccc43)cc2)c1` [PC786], for which half-maximal inhibition in series [1] (IC50) was put at 0.5 nM. Also, the CC50 in series [2] is over 14000 nM. For the same compound, the “concentration up to which cell viability was not affected” value in series [3] was at least 14 µM.
